Experimental data taken from article PMC7534383, “Structure-activity relationship of 7-aryl-2-anilino-pyrrolopyrimidines as Mer and Axl tyrosine kinase inhibitors” (Journal of Enzyme Inhibition and Medicinal Chemistry, 2020).
Like-named read-outs stand apart in the source and are kept apart here.

Experiments:
Type in all cases: biochemical
MERTK = biological target: T1, MERTK (Homo sapiens, UniProt Q12866); experiment: Kinase assay at Km ATP (Eurofins Discovery), Mer; conditions: for IC50: Km ATP
T1 sequence (Q12866 21-999): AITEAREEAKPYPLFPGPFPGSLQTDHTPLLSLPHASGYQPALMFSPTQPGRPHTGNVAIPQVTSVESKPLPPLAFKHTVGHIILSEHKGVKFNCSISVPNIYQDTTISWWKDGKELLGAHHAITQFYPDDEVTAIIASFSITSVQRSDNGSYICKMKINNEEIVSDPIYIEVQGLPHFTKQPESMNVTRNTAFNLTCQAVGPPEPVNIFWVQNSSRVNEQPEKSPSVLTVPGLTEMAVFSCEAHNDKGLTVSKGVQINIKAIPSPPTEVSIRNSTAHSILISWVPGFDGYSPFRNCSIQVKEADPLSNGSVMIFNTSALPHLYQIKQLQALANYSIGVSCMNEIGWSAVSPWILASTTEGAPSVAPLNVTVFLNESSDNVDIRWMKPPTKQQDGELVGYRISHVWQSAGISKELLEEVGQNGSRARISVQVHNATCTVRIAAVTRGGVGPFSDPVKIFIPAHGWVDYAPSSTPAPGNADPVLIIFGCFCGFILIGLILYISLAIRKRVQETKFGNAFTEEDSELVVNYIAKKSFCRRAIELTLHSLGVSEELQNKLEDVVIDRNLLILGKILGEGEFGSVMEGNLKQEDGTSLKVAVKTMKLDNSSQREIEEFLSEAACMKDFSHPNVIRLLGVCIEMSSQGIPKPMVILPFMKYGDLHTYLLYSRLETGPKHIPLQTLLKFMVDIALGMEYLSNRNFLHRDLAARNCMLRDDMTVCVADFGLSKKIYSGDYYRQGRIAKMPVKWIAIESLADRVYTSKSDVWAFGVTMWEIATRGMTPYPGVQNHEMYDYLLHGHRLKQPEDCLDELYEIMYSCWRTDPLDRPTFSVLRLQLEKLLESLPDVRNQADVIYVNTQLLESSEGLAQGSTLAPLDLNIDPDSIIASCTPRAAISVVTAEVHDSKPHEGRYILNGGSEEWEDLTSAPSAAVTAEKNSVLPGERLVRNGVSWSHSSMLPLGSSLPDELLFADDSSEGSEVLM
Description: (§1) All kinase assays were carried out at Km ATP by Eurofins Discovery's Kinase Screening and Profiling services (France).

AXL = biological target: T2, AXL (Homo sapiens, UniProt P30530); experiment: Kinase assay at Km ATP (Eurofins Discovery), Axl; conditions: for IC50: Km ATP
T2 sequence (P30530 26-894): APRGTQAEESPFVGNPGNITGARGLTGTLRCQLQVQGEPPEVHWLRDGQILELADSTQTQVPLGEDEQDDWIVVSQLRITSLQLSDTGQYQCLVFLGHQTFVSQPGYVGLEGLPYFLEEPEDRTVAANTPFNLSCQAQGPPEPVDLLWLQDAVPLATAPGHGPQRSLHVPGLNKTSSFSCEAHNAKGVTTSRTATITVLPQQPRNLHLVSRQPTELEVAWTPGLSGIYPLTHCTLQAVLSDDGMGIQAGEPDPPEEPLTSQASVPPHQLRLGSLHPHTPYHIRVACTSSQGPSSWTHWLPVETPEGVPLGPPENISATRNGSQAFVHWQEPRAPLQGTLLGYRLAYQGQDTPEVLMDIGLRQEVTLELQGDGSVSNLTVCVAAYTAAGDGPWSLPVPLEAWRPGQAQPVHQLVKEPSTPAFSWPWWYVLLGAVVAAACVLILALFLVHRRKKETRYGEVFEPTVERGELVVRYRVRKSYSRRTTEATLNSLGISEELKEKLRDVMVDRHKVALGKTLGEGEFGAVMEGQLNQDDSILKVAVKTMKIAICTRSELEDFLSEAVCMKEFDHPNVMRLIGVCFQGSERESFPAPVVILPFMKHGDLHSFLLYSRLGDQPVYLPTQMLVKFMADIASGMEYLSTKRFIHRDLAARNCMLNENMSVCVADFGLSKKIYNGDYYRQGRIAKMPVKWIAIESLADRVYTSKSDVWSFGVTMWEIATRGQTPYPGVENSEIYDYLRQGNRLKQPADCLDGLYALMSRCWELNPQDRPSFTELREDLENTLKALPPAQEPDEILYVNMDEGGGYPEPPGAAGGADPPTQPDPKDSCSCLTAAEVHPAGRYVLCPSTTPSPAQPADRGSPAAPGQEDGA
Description: as §1

TYRO3 = biological target: T3, TYRO3 (Homo sapiens, UniProt Q06418); experiment: Kinase assay at Km ATP (Eurofins Discovery), Tyro3
T3 sequence (Q06418 41-890): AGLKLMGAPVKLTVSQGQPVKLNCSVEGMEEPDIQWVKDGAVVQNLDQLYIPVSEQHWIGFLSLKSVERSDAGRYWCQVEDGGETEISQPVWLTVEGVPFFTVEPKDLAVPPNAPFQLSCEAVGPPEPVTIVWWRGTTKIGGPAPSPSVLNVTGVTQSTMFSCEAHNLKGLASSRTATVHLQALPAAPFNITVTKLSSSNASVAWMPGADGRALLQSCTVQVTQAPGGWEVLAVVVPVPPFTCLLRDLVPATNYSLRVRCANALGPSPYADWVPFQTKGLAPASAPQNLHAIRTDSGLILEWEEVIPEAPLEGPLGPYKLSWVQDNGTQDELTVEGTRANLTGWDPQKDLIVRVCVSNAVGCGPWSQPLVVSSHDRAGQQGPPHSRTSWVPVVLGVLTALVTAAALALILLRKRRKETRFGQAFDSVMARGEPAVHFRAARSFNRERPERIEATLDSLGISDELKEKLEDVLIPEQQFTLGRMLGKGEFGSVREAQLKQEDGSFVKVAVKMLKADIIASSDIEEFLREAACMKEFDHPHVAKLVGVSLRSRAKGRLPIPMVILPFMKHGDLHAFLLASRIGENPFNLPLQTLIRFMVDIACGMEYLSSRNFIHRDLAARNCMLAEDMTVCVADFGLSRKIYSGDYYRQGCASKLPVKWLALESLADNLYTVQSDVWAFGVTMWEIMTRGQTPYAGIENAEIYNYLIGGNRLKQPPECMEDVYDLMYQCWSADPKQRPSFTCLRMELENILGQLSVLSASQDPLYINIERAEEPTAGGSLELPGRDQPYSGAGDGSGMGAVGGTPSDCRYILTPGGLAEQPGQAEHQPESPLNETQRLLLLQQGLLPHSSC
Description: as §1

[1] = Table 2, read-out: IC50 (nM) MER
[2] = Table 3, read-out: IC50 (nM) MER
[3] = Table 1, mean values, read-out: IC50 (nM) MERTK

Row | IC50 (MERTK; [1]) | IC50 (AXL; Table 2) | inhibition at 1 µM (TYRO3) | Compound | other results
1 | > 3000 nM | > 3000 nM | 4% | COc1ccc(-n2ccc3cnc(Nc4cc(OC)cc(N5CCC6(CCCC6)CC5)c4)nc32)cc1 [Compound 31, N-(3-Methoxy-5–(8-azaspiro[4.5]decan-8-yl)phenyl)-7–(4-methoxyphenyl)-7H-pyrrolo[2,3-d]pyrimidin-2-amine] | 
2 |  |  | 35% | COc1cc(Nc2ncc3ccn(-c4ccccc4)c3n2)cc(N2CCC(N3CCCC3)CC2)c1 [Compound 34, N-(3-Methoxy-5–(4-(pyrrolidin-1-yl)piperidin-1-yl)phenyl)-7-phenyl-7H-pyrrolo[2,3-d]pyrimidin-2-amine] | IC50 (MERTK; [2]): 17 nM; IC50 (AXL; Table 3): 48 nM
3 | 10 nM | 199 nM | 37% | COc1ccc(-n2ccc3cnc(Nc4ccc(NC5CCN(C)CC5)c(OC)c4)nc32)cc1 [Compound 17, 2-Methoxy-N4-(7–(4-methoxyphenyl)-7H-pyrrolo[2,3-d]pyrimidin-2-yl)-N1-(1-methylpiperidin-4-yl)benzene-1,4-diamine] | 
4 |  |  | 12% | COc1ccc(-n2ccc3cnc(Nc4cccc(-c5ccccc5)c4)nc32)cc1 [Compound 4, N-([1,1′-Biphenyl]-3-yl)-7–(4-methoxyphenyl)-7H-pyrrolo[2,3-d]pyrimidin-2-amine] | IC50 (MERTK; [3]): > 3000 nM; IC50 (AXL; Table 1, mean values): > 3000 nM
5 |  |  |  | COc1cc(Nc2ncc3ccn([C@H]4CC[C@H](O)CC4)c3n2)cc(N2CCC(N3CCCC3)CC2)c1 [Compound 36, (1r,4r)-4–(2-((3-Methoxy-5–(4-(pyrrolidin-1-yl)piperidin-1-yl)phenyl)amino)-7H-pyrrolo[2,3-d]pyrimidin-7-yl)cyclohexanol] | IC50 (MERTK; [2]): 484 nM; IC50 (AXL; Table 3): 2020 nM; %Inhibition at 1 µM TYRO3 (TYRO3; Table 3, 1 µM, Km ATP): 55%
6 | 46 nM | 175 nM | 30% | COc1ccc(-n2ccc3cnc(Nc4ccc(N5CCC(N(C)C)C5)c(OC)c4)nc32)cc1 (stereo not shown) [Compound 18, N-(4–(3-(Dimethylamino)pyrrolidin-1-yl)-3-methoxyphenyl)-7–(4-methoxyphenyl)-7H-pyrrolo[2,3-d]pyrimidin-2-amine] | 
7 | 2 nM | 17 nM | 86% | COc1ccc(-n2ccc3cnc(Nc4cc(OC)cc(N5CCN(C)CC5)c4)nc32)cc1 [Compound 25, N-(3-Methoxy-5–(4-methylpiperazin-1-yl)phenyl)-7–(4-methoxyphenyl)-7H-pyrrolo[2,3-d]pyrimidin-2-amine] | 
8 |  |  | 23% | COc1cc(Nc2ncc3ccn(-c4ccc(OC(F)(F)F)cc4)c3n2)cc(N2CCC(N3CCCC3)CC2)c1 [Compound 33, N-(3-Methoxy-5–(4-(pyrrolidin-1-yl)piperidin-1-yl)phenyl)-7–(4-(trifluoromethoxy)phenyl)-7H-pyrrolo[2,3-d]pyrimidin-2-amine] | IC50 (MERTK; [2]): 9 nM; IC50 (AXL; Table 3): 57 nM
9 |  | 288 nM | 0% | COc1ccc(-n2ccc3cnc(Nc4cc(OC)cc(N5CCC6(CCCO6)CC5)c4)nc32)cc1 [Compound 32, N-(3-Methoxy-5–(1-oxa-8-azaspiro[4.5]decan-8-yl)phenyl)-7–(4-methoxyphenyl)-7H-pyrrolo[2,3-d]pyrimidin-2-amine] | 
10 | 7 nM | 32 nM | 72% | COc1ccc(-n2ccc3cnc(Nc4cc(OC)cc(N5CCC(C)(N6CCCC6)CC5)c4)nc32)cc1 [Compound 28, N-(3-Methoxy-5–(4-methyl-4-(pyrrolidin-1-yl)piperidin-1-yl)phenyl)-7–(4-methoxyphenyl)-7H-pyrrolo[2,3-d]pyrimidin-2-amine] | 
11 |  |  | 44% | COc1ccc(-n2ccc3cnc(Nc4ccccc4)nc32)cc1 [Compound 3, 7–(4-Methoxyphenyl)-N-phenyl-7H-pyrrolo[2,3-d]pyrimidin-2-amine] | IC50 (MERTK; [3]): 95 nM; IC50 (AXL; Table 1, mean values): 751 nM
12 | 31 nM | 31 nM | 49% | COc1ccc(-n2ccc3cnc(Nc4cc(OC)cc(N5CCCC(N6CCCC6)C5)c4)nc32)cc1 (stereo not shown) [Compound 29, N-(3-Methoxy-5–(3-(pyrrolidin-1-yl)piperidin-1-yl)phenyl)-7–(4-methoxyphenyl)-7H-pyrrolo[2,3-d]pyrimidin-2-amine] | 
13 | 15 nM | 104 nM | 27% | COc1ccc(-n2ccc3cnc(Nc4ccc(N5CCN(C)CC5)c(OC)c4)nc32)cc1 [Compound 16, N-(3-Methoxy-4–(4-methylpiperazin-1-yl)phenyl)-7–(4-methoxyphenyl)-7H-pyrrolo[2,3-d]pyrimidin-2-amine] | fold decreased IC50 for Mer compared to 2 (MERTK; relative to compound 2): 2.6 fold; fold decreased IC50 for Axl compared to 2 (AXL; relative to compound 2): 12 fold
14 |  |  | 38% | COc1ccc(-n2ccc3cnc(Nc4cccc(OC)c4)nc32)cc1 [Compound 2, N-(3-Methoxyphenyl)-7–(4-methoxyphenyl)-7H-pyrrolo[2,3-d]pyrimidin-2-amine] | IC50 (MERTK; [3]): 39 nM; IC50 (AXL; Table 1, mean values): 1240 nM
15 |  |  | 0% | COc1ccc(-n2ccc3cnc(N4CCN(C)CC4)nc32)cc1 [Compound 5, 7–(4-Methoxyphenyl)-2–(4-methylpiperazin-1-yl)-7H-pyrrolo[2,3-d]pyrimidine] | IC50 (MERTK; [3]): > 1000 nM; IC50 (AXL; Table 1, mean values): > 1000 nM
16 |  |  | 16% | COc1cc(Nc2ncc3ccn(-c4nccs4)c3n2)cc(N2CCC(N3CCCC3)CC2)c1 [Compound 35, N-(3-Methoxy-5–(4-(pyrrolidin-1-yl)piperidin-1-yl)phenyl)-7-(thiazol-2-yl)-7H-pyrrolo[2,3-d]pyrimidin-2-amine] | IC50 (MERTK; [2]): 64 nM; IC50 (AXL; Table 3): 247 nM
